Measured values taken from patent US20050288377A1, “Use of calcimimetic as an adynamic bone disease related treatment” (priority 2004, published 2005).
Values joined by “and” are separate entries in the source; they are usually repeats but may differ in a detail not shown here. Equal entries are not always repeated. Structures can show the parent of a compound that is named as a salt. Where two headings read alike, the source gives them in different places.

Tests used:
[1] = system: ESRD subjects; assay: Study of ESRD subjects treated with Cinacalcet and HECTOROL (Table 3); assay type: in vivo, human; conditions: unlabelled summary line over patients 1-11
Description: Table 3 provides the results of a study of several ESRD subjects treated with Cinacalcet and HECTOROL™ (Doxercalciferol synthetic Vitamin D). Pre and post treatment levels of total PTH, 1-84 PTH, 7-84 PTH, calcium, phosphate and alkaline phosphatase are provided together with the pre and post treatment ratio of 1-84 PTH/7-84 PTH and the pre and post treatment product of (calcium) x (phosphate).

[2] = system: chronic kidney disease patients on dialysis; conditions: product insert; cited from earlier work
[3] = system: parathyroid cancer patients; assay: PTH levels and ratio in parathyroid cancer patients receiving Cinacalcet HCl (Table 2); assay type: in vivo, human; conditions: SCR or D1 visit: prior to Cinacalcet HCl treatment (baseline); hydrochloride
Description: See M. R. Rubin, et al., “A Molecular Form of PTH Distinct From PTH (1-84) is Produced in Parathyroid Carcinoma” (J. Bone & Mineral Metab., forthcoming).

[4] = system: 1-84 PTH/7-84 PTH ratio; conditions: cited from earlier work

C[C@@H](NCCCc1cccc(C(F)(F)F)c1)c1cccc2ccccc12 [Cinacalcet HCl]
Post CIP (7-84 PTH) ([1]; post treatment): 342.2 | Post Ca ([1]; post treatment): 8.7 | Post Phos ([1]; post treatment): 5.6 | Post alk phos ([1]; post treatment): 240.5 | Post-CAP (1-84 PTH) ([1]; post treatment): 458.3 | Post-Total (total PTH) ([1]; post treatment): 800.4 | Prot Ca xP ([1]; post treatment): 49.2 | Pre Ca ([1]; pre treatment): 9.5 | Pre Ca xP ([1]; pre treatment): 55.7 | Pre Phos ([1]; pre treatment): 5.9 | Pre alk phos ([1]; pre treatment): 220.2 | Pre-CAP (1-84 PTH) ([1]; pre treatment): 508.8 | Pre-CIP (7-84 PTH) ([1]; pre treatment): 355.3 | Pre-Total (total PTH) ([1]; pre treatment): 864.0 | risk for developing adynamic bone disease [2]: carries a risk for developing adynamic bone disease | CPTH/TPTH [3]: 1.5 and 1.6

C=C1/C(=C\C=C2/CCC[C@]3(C)[C@@H]([C@H](C)/C=C/[C@H](C)C(C)C)CC[C@@H]23)C[C@@H](O)C[C@@H]1O [Hectarale, Doxercalciferol]
Ca ([4]; 2.5 μgm/dose, Nov. 1 2001 (Ca Nov. 8)): 8.1 mg/dL | PO4 ([4]; 2.5 μgm/dose, Nov. 1 2001 (PO4 Nov.5-7)): 5.7 mg/dL | CAP ([4]; 2.5 μgm/dose, Nov. 1 2001): 1462 pgm/mL | CAP/CIP ([4]; 2.5 μgm/dose, Nov. 1 2001): 6.74 | CIP ([4]; 2.5 μgm/dose, Nov. 1 2001): 217 pgm/mL | Ca × PO4 ([4]; 2.5 μgm/dose, Nov. 1 2001): 46 | Intact PTH ([4]; 2.5 μgm/dose, Nov. 1 2001): 1679 pgm/mL | Ca ([4]; 4 μgm/dose, Aug. 17 2001 (Ca Sept. 21)): 8.3 mg/dL | PO4 ([4]; 4 μgm/dose, Aug. 17 2001 (PO4 Sept. 21)): 7.0 mg/dL | CAP ([4]; 4 μgm/dose, Aug. 17 2001): 1735 pgm/mL | CAP/CIP ([4]; 4 μgm/dose, Aug. 17 2001): 0.95 | CIP ([4]; 4 μgm/dose, Aug. 17 2001): 1824 pgm/mL | Ca × PO4 ([4]; 4 μgm/dose, Aug. 17 2001): 58 | Intact PTH ([4]; 4 μgm/dose, Aug. 17 2001): 3559 pgm/mL
